Test results published in ChEMBL document CHEMBL1129675, “New directions in antibacterial research” (1996).
Values after ≈ are worked out from the molar mass of the structure shown. Active and inactive are the calls of the source. The calls are words filed in the database; no cut-off is given here. Starred links: 1 amine or outer side, 2 acyl side, 3 side chain; linkers in the order of their positions; H or OH if unused. Positions of bridges follow the written chain, without caps; N, C: chain ends. Non-standard residues stand in square brackets, D forms with d. Residues, ends and D or L forms follow the SMILES beside them. X1 = O=C([C@@H](N[*:1])c1ccc(O[C@H]2OC(CO)[C@@H](O)[C@@H](O)[C@@H]2O[C@H]2O[C@@H](CO)[C@@H](O)[C@H](O)[C@H]2O)cc1)[*:2]; X4 = CC(C)CC/C=C\C=C/C(=O)NC(CC(N)=O)C(=O)CC(C(=O)[*:1])C(O[*:2])C(N)=O; X2 = CC(C)C/C=C\C=C/C(=O)NC(CC(N)=O)C(=O)CC(C(=O)[*:1])C(O[*:2])C(N)=O; X3 = CCC/C=C\C=C/C(=O)NC(CC(N)=O)C(=O)CC(C(=O)[*:1])C(O[*:2])C(N)=O; Hpg(3-Cl) = N[C@H](C(=O)O)c1ccc(O)c(Cl)c1; Hpg = N[C@H](C(=O)O)c1ccc(O)cc1; Orn = NCCC[C@H](N)C(=O)O

Legend:
Staphylococcus aureus [1] = assay: Antibacterial activity against MRSA was determined; Active; format: functional, organism-based
Pseudomonas aeruginosa = assay: Antibacterial activity against Pseudomonas aeruginosa was determined; Active; format: functional, organism-based
[2] = Inhibitory activity against Lactobacillus species.; format: functional; conditions: Bacteria
[3] = Inhibitory activity against Pediococcus species.; format: functional
[4] = Inhibitory activity against Leuconostoc species.; format: functional
Enterococcus = assay: Inhibitory activity against Vancomycin resistant enterococci; format: functional
[5] = system: Staphylococcus epidermidis; assay: Inhibitory activity against methicillin-sensitive Staphylococcus epidermidis (MSSE); format: functional
Staphylococcus aureus [6] = assay: Inhibitory activity against MSSA; format: functional
Haemophilus influenzae = assay: Inhibitory activity against Haemophilus influenzae; format: functional
Streptococcus pneumoniae = assay: Inhibitory activity against Streptococcus pneumoniae; format: functional
Streptococcus pyogenes = assay: Inhibitory activity against Streptococcus pyogenes; format: functional
Bacteroides fragilis = assay: Inhibitory activity against Bacteroides fragilis; format: functional
[7] = system: Staphylococcus epidermidis; assay: Inhibitory activity against methicillin-resistant Staphylococcus epidermidis (MRSE); format: functional
Enterococcus faecium = assay: Inhibitory activity against Enterococcus faecium; format: functional
Staphylococcus aureus [8] = assay: Inhibitory activity against MRSA; format: functional
Moraxella catarrhalis = assay: Inhibitory activity against Moraxella catarrhalis; format: functional
Bacteria = assay: Inhibitory activity against Corynebacterium; format: functional
[9] = Inhibitory activity against many clinical relevent pathogen; Range is 5-50 ug/mL; format: functional

In the case of `C[C@H](O)[C@H]1C(=O)N2C(C(=O)[O-])=C(Sc3nc(-c4cc[n+](CC(N)=O)cc4)cs3)[C@H](C)[C@H]12`, the Activity (Staphylococcus aureus [1]) is reported as “Active”.

In the case of `Cc1nc(SCC2=C(C(=O)O)N3C(=O)[C@@H](NC(=O)/C(=N\OCc4cc(=O)c(O)cn4O)c4csc(N)n4)[C@H]3CS2)sc1C(=O)O`, the Activity (Pseudomonas aeruginosa) is reported as “Active”.

Work on `CC(C)C/C=C\C=C/C(=O)NC(CC(N)=O)C(=O)CC1C(=O)N[C@@H](c2ccc(O)cc2)C(=O)N[C@@H](CCCN)C(=O)N[C@@H]([C@@H](C)O)C(=O)N[C@@H](c2ccc(O)cc2)C(=O)N[C@@H](c2ccc(O)cc2)C(=O)N[C@@H]([C@@H](C)O)C(=O)N[C@@H](Cc2ccccc2)C(=O)N[C@@H](CCCN)C(=O)N[C@@H](c2ccc(O[C@H]3OC(CO)[C@@H](O)[C@@H](O)[C@@H]3O[C@H]3O[C@@H](CO)[C@@H](O)[C@H](O)[C@H]3O)cc2)C(=O)N[C@@H]([C@@H](C)O)C(=O)N[C@@H](c2ccc(O)cc2)C(=O)NCC(=O)N[C@@H](CC(C)C)C(=O)N[C@@H](C)C(=O)N[C@@H](c2ccc(O)c(Cl)c2)C(=O)OC1C(N)=O` (some centres undefined) ([Hpg][Orn]T[Hpg][Hpg]TF[Orn][X1]T[Hpg]GLA[Hpg(3-Cl)]; linker N-C via X2) yielded an MIC90 [2] of at most 0.25 µg/mL, an MIC90 [3] of at most 0.25 µg/mL and an MIC90 [4] of at most 0.25 µg/mL. The MIC90 (Enterococcus) was 0.5 µg/mL (≈ 0.196 µM).

Work on `CCC/C=C\C=C/C(=O)NC(CC(N)=O)C(=O)CC1C(=O)N[C@@H](c2ccc(O)cc2)C(=O)N[C@@H](CCCN)C(=O)N[C@@H]([C@@H](C)O)C(=O)N[C@@H](c2ccc(O)cc2)C(=O)N[C@@H](c2ccc(O)cc2)C(=O)N[C@@H]([C@@H](C)O)C(=O)N[C@@H](Cc2ccccc2)C(=O)N[C@@H](CCCN)C(=O)N[C@@H](c2ccc(O[C@H]3OC(CO)[C@@H](O)[C@@H](O)[C@@H]3O[C@H]3O[C@@H](CO)[C@@H](O)[C@H](O)[C@H]3O)cc2)C(=O)N[C@@H]([C@@H](C)O)C(=O)N[C@@H](c2ccc(O)cc2)C(=O)NCC(=O)N[C@@H](CC(C)C)C(=O)N[C@@H](C)C(=O)N[C@@H](c2ccc(O)c(Cl)c2)C(=O)OC1C(N)=O` (some centres undefined) ([Hpg][Orn]T[Hpg][Hpg]TF[Orn][X1]T[Hpg]GLA[Hpg(3-Cl)]; linker N-C via X3) yielded an MIC90 [2] of at most 0.25 µg/mL, an MIC90 [3] of at most 0.25 µg/mL and an MIC90 [4] of at most 0.25 µg/mL. The MIC90 (Enterococcus) was 0.5 µg/mL (≈ 0.197 µM).

In the case of `CC(C)CC/C=C\C=C/C(=O)NC(CC(N)=O)C(=O)CC1C(=O)N[C@@H](c2ccc(O)cc2)C(=O)N[C@@H](CCCN)C(=O)N[C@@H]([C@@H](C)O)C(=O)N[C@@H](c2ccc(O)cc2)C(=O)N[C@@H](c2ccc(O)cc2)C(=O)N[C@@H]([C@@H](C)O)C(=O)N[C@@H](Cc2ccccc2)C(=O)N[C@@H](CCCN)C(=O)N[C@@H](c2ccc(O[C@H]3OC(CO)[C@@H](O)[C@@H](O)[C@@H]3O[C@H]3O[C@@H](CO)[C@@H](O)[C@H](O)[C@H]3O)cc2)C(=O)N[C@@H]([C@@H](C)O)C(=O)N[C@@H](c2ccc(O)cc2)C(=O)NCC(=O)N[C@@H](CC(C)C)C(=O)N[C@@H](C)C(=O)N[C@@H](c2ccc(O)c(Cl)c2)C(=O)OC1C(N)=O` (some centres undefined) ([Hpg][Orn]T[Hpg][Hpg]TF[Orn][X1]T[Hpg]GLA[Hpg(3-Cl)]; linker N-C via X4), the MIC90 [2] is reported as at most 0.25 µg/mL, the MIC90 [3] is reported as at most 0.25 µg/mL and the MIC90 [4] is reported as at most 0.25 µg/mL. It also gave an MIC90 (Enterococcus) of 0.5 µg/mL (≈ 0.195 µM).

Compound `CC(=O)NC[C@H]1CN(c2ccc(N3CCN(C(=O)CO)CC3)c(F)c2)C(=O)O1` [EPEREZOLID] has an MIC90 [5] of 1 µg/mL (≈ 2.54 µM), an MIC90 (Staphylococcus aureus [6]) of 4 µg/mL (≈ 10.1 µM) and an MIC90 (Haemophilus influenzae) of 16 µg/mL (≈ 40.6 µM). The MIC90 (Streptococcus pneumoniae) was 0.5 µg/mL (≈ 1.27 µM), the MIC90 (Streptococcus pyogenes) was 1 µg/mL (≈ 2.54 µM) and the MIC90 (Bacteroides fragilis) was 16 µg/mL (≈ 40.6 µM). It also gave an MIC90 [7] of 1 µg/mL (≈ 2.54 µM), an MIC90 (Enterococcus faecium) of 2 µg/mL (≈ 5.07 µM) and an MIC90 (Staphylococcus aureus [8]) of 4 µg/mL (≈ 10.1 µM). It also gave an MIC90 (Moraxella catarrhalis) of 4 µg/mL (≈ 10.1 µM) and an MIC90 (Bacteria) of 0.5 µg/mL (≈ 1.27 µM).

`CC(=O)NC[C@H]1CN(c2ccc(N3CCOCC3)c(F)c2)C(=O)O1` [LINEZOLID] showed an MIC90 [5] of 2 µg/mL (≈ 5.93 µM), an MIC90 (Staphylococcus aureus [6]) of 4 µg/mL (≈ 11.9 µM) and an MIC90 (Haemophilus influenzae) of 16 µg/mL (≈ 47.4 µM). It also gave an MIC90 (Streptococcus pneumoniae) of 1 µg/mL (≈ 2.96 µM), an MIC90 (Streptococcus pyogenes) of 2 µg/mL (≈ 5.93 µM) and an MIC90 (Bacteroides fragilis) of 4 µg/mL (≈ 11.9 µM). The MIC90 [7] was 2 µg/mL (≈ 5.93 µM), the MIC90 (Enterococcus faecium) was 4 µg/mL (≈ 11.9 µM) and the MIC90 (Staphylococcus aureus [8]) was 4 µg/mL (≈ 11.9 µM). The MIC90 (Moraxella catarrhalis) was 4 µg/mL (≈ 11.9 µM) and the MIC90 (Bacteria) was 0.5 µg/mL (≈ 1.48 µM).

In the case of `CC[C@H](C)[C@H](NC(=O)CN)C(=O)NCC(=O)N[C@@H](CCCCN)C(=O)N[C@@H](Cc1ccccc1)C(=O)N[C@@H](CC(C)C)C(=O)N[C@@H](Cc1c[nH]cn1)C(=O)N[C@@H](CO)C(=O)N[C@@H](C)C(=O)N[C@@H](CCCCN)C(=O)N[C@@H](CCCCN)C(=O)N[C@@H](Cc1ccccc1)C(=O)NCC(=O)N[C@@H](CCCCN)C(=O)N[C@@H](C)C(=O)N[C@@H](Cc1ccccc1)C(=O)N[C@H](C(=O)NCC(=O)N[C@@H](CCC(=O)O)C(=O)N[C@H](C(=O)N[C@@H](CCSC)C(=O)N[C@@H](CC(N)=O)C(=O)N[C@@H](CO)C(=O)O)[C@@H](C)CC)C(C)C` [MAGAININ 2] (H-GIGKFLHSAKKFGKAFVGEIMNS-OH), the MIC [9] is reported as 5 µg/mL (≈ 2.03 µM).

With `CC[C@H](C)[C@H](NC(=O)CN)C(=O)NCC(=O)N[C@@H](CCCCN)C(=O)N[C@@H](Cc1ccccc1)C(=O)N[C@@H](CC(C)C)C(=O)N[C@@H](Cc1cnc[nH]1)C(=O)N[C@@H](CO)C(=O)N[C@@H](C)C(=O)NCC(=O)N[C@@H](CCCCN)C(=O)N[C@@H](Cc1ccccc1)C(=O)NCC(=O)N[C@@H](CCCCN)C(=O)N[C@@H](C)C(=O)N[C@@H](Cc1ccccc1)C(=O)N[C@H](C(=O)NCC(=O)N[C@@H](CCC(=O)O)C(=O)N[C@H](C(=O)N[C@@H](CCSC)C(=O)N[C@@H](CCCCN)C(=O)N[C@@H](CO)C(=O)O)[C@@H](C)CC)C(C)C` [MAGAININ I] (H-GIGKFLHSAGKFGKAFVGEIMKS-OH) the MIC [9] was 5 µg/mL (≈ 2.07 µM).

`CN(C)c1ccc(O)c2c1C[C@H]1C[C@H]3[C@H](N(C)C)C(O)=C(C(N)=O)C(=O)[C@@]3(O)C(O)=C1C2=O` [MINOCYCLINE] gave an MIC90 (Staphylococcus aureus [8]) of 16 µg/mL (≈ 35 µM).
